32 compounds from PubChem BioAssay (NCI) can be followed below.

“And” between values parts separate entries of the source, which are not always exact repeats. Equal entries are not always repeated.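 Exposure lasted 48 hours, with cells grown in 96-well plates and compounds tested at five concentrations. Abbreviation: GI50, concentration required for 50% inhibition of growth. TGI: concentration producing complete growth inhibition.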 Bounds are passed on as bounds.

Common to all, as to test: NCI-60 cell line screen, 48 h
For assay [1], the system named is 786-0 renal.
For assay [2], the system named is HL-60(TB) leukemia.
The subject of assay [3] is K-562 leukemia.
In assay [4] the test system is NCI-H522 lung.
The test system of assay [5] is OVCAR-5 ovarian.
Assay [6] has as its system RXF 393 renal.
Assay [7] deals with SK-OV-3 ovarian.
Assay [8] has as its system UO-31 renal.
The test system of assay [9] is NCI-H226 lung.

As for `O=C1NC2(CCCCC2)C2=C1CCCCC2`, the TGI in assay [1], in [2], in [3], in assay [4], in assay [5] and in [6] was greater than 100 µM in each case. The TGI in assay [7] and in assay [8] was greater than 100 µM throughout.

On to `Cc1c2cc[n+](C)cc2c(C)c2c1[nH]c1ccc(Oc3ccccc3)cc12`, for which the TGI was greater than 64.3 µM in [1]; greater than 24 µM in assay [3]; 28 µM and 8.75 µM in assay [9]; 12.1 µM and 8.56 µM in assay [4]; > 42 µM and 29.9 µM in assay [5]; > 100 µM and 59.4 µM in [6]. Also, the TGI is > 73.5 µM and 21.4 µM in assay [7]; 40 µM and > 38.1 µM in assay [8]. For the same compound, the GI50 in assay [2] was 2.18 µM and 4.06 µM; in [9], 0.797 µM; in assay [4], 2.41 µM and 0.743 µM; in [6] it was > 100 µM and 11 µM.

For `Cn1ncc2c(c1=O)Nc1ccccc1S2(=O)=O`, the TGI is 75.3 µM in assay [1]; greater than 100 µM in [3]; greater than 100 µM in [9]; greater than 100 µM in [4]; greater than 100 µM in assay [5]; greater than 100 µM in [7]. The same compound showed a TGI in assay [8] greater than 100 µM.

As for `NC1=NN(c2ccccc2)C(=O)C1/C(=N\NC(=O)c1cc2ccccc2cc1O)C(=O)Nc1ccc(Cl)cc1` (stereo not given), the TGI in assay [1] is greater than 100 µM; in assay [2], 14.7 µM; in assay [3], greater than 100 µM; in assay [9], greater than 100 µM; in [4] it was 83.4 µM; in [5], greater than 100 µM. In addition, the figures for the TGI in [7] and in assay [8] were greater than 100 µM and 96.1 µM, respectively.

For the compound `CCCCc1c2c(nc3c1CC/C(=C\c1ccccc1)C3=O)CCCC2`, the TGI turned out to be 5.64 µM in assay [1]; 10.3 µM in assay [2]; 32.3 µM in [3]; 6.37 µM in [4]; 6.35 µM in assay [6]; 22.9 µM in assay [7]. Besides, the TGI in assay [8] was 19.1 µM.

Regarding `O=[N+]([O-])c1cccc(C2=NOC3CCCC23)c1` (stereo not given), the TGI in assay [1], in [2], in assay [3], in [9], in assay [4] and in assay [5] was greater than 100 µM throughout. The TGI in assay [7] and in assay [8] was greater than 100 µM in each case.

In the case of `Cn1nc(-c2ccccc2)c(C(=O)/C=C/c2ccccc2)c(N2CCCC2)c1=O`, the TGI in assay [1] came to 33.4 µM; in [2], 22.7 µM; in [3] it was 40.9 µM; in assay [4], 23.7 µM; in assay [6], 23.9 µM; in assay [7] it was 85.9 µM. Besides, the TGI in [8] worked out at 38.7 µM.

Consider `O=[N+]([O-])C1(CO)COC(CCc2ccccc2)OC1` (stereo not given), for which the TGI in assay [1], in assay [2], in assay [3], in [4], in assay [5] and in [6] was greater than 100 µM throughout. Further, the TGI in assay [7] and in assay [8] was greater than 100 µM each time.

For the compound `COC(=O)CCSC(=O)Nc1ccccc1Cl`, the TGI was greater than 100 µM in assay [1]; greater than 100 µM in assay [2]; greater than 100 µM in assay [3]; greater than 100 µM in [9]; 28.1 µM in [4]; greater than 100 µM in [5]. Besides, in [8], the TGI was greater than 100 µM.

As for `CC1CC2C(=O)N(c3ccccc3)C(=O)C2c2[nH]c3ccccc3c21` (stereo not given), the TGI in assay [1] was greater than 100 µM; in assay [2], greater than 100 µM; in [3], greater than 100 µM; in [6] it was greater than 100 µM; in [7], 36.7 µM.

For the compound `CN(C)c1ccc(/C=C2\Cc3ccccc3C2=O)cc1Br`, the TGI is greater than 100 µM in assay [1]; greater than 100 µM in assay [3]; 70.6 µM in [4]; greater than 100 µM in [5]; greater than 100 µM in assay [7]; greater than 100 µM in [8].

As for `NC1CC(n2ccc(=O)[nH]c2=O)OC1C(O)CO` (stereo not given), the TGI in [1], in [2], in assay [3], in assay [9], in assay [4] and in assay [5] was greater than 100 µM throughout. In addition, the TGI in [6], in assay [7] and in assay [8] was greater than 100 µM each time.

On to `O=C1COc2cc3c(cc2N1)SCC(=O)N3`, for which the TGI in assay [1], in assay [2], in assay [3], in [9], in [4] and in [7] was greater than 100 µM throughout. The same compound yielded a TGI in [8] greater than 100 µM.

On to `COC(=O)C1=C(C)C(=O)C2(CCCCCC2C(=O)OC)C1` (stereo not given), for which the TGI in assay [1], in assay [2], in assay [3], in [9], in assay [4] and in assay [5] was greater than 100 µM each time. For the same compound, the TGI in [6], in assay [7] and in assay [8] was greater than 100 µM in each case.

`O=c1cccccc1[O-].O=c1cccccc1[O-].O=c1cccccc1[O-].[Dy+3]`: the TGI in assay [1] is greater than 100 µM; in assay [2], 54.3 µM; in assay [3] it was greater than 100 µM; in assay [9], greater than 100 µM; in assay [4], greater than 100 µM; in [5], greater than 100 µM. The TGI in [6] is 79 µM; in assay [7], 98.3 µM; in [8], greater than 100 µM.

On to `O=C(Nc1ccccc1)Oc1ccccc1C1CCCCC1`, for which the TGI in assay [1] was 53.2 µM; in assay [2] it was 35.2 µM; in assay [3], 50.3 µM; in [9], 37.6 µM; in assay [5], greater than 100 µM; in assay [6], 21.9 µM. Moreover, the TGI was greater than 100 µM in [7] and 74.3 µM in assay [8].

On to `CC(=O)OCC1OC(OC(C)=O)C(NC#N)C(OC(C)=O)C1OC(C)=O` (stereo not given), for which the TGI in assay [1], in assay [2], in assay [3], in assay [4], in assay [5] and in assay [6] was greater than 100 µM each time. The TGI in assay [7] and in assay [8] was greater than 100 µM each time.

Regarding `NC(=O)NC(=O)C1CCC(=O)N1S(=O)(=O)c1ccc(Cl)cc1` (stereo not given), the TGI in assay [1], in [2], in assay [3], in assay [9], in assay [4] and in assay [6] was greater than 100 µM each time. The TGI in assay [7] and in assay [8] was greater than 100 µM throughout.

On to `CCOC(=O)C1C(=O)C(=O)N2CCc3c([nH]c4ccccc34)C12` (stereo not given), for which the TGI in [1], in assay [2], in assay [3], in assay [4], in assay [5] and in assay [6] was greater than 100 µM throughout. In addition, the TGI in assay [7] and in assay [8] was greater than 100 µM throughout.

Turning to `Cc1nc(-c2cccnc2)sc1C(=O)/C=C/c1ccc(Cl)cc1Cl`, the TGI in assay [1], in assay [2], in [3], in assay [9], in [4] and in assay [5] was greater than 100 µM throughout. Also, the TGI in assay [6], in [7] and in [8] was greater than 100 µM each time.

`COC(=O)N/N=C(\c1nc2ccc(Cl)cc2[nH]c1=O)C(O)c1ccc([N+](=O)[O-])cc1` (stereo not given): the TGI in assay [1], in [2], in assay [3], in [9], in [4] and in assay [5] was greater than 100 µM in each case. Also, the TGI in [6], in assay [7] and in assay [8] was greater than 100 µM throughout.

Turning to `CN1C/C(=C\c2ccco2)c2nc(N)nc(-c3ccco3)c2C1`, the TGI in assay [1], in assay [2], in assay [3], in assay [9], in [4] and in [5] was greater than 100 µM each time. Also, the TGI in [6], in assay [7] and in assay [8] was greater than 100 µM each time.

On to `CCCCCCCCCCCCCCCC(=O)NCC(OCC)OCC`, for which the TGI in assay [1], in assay [2], in [9], in [4], in assay [5] and in assay [6] was greater than 100 µM in each case. The TGI in [7] and in [8] was greater than 100 µM throughout.

As to `CCCNc1ncnc2c1cnn2C`, the TGI in assay [1], in assay [2], in assay [3], in [9], in assay [4] and in assay [5] was greater than 100 µM in each case. In assay [7], this compound returned a TGI greater than 100 µM.

`Cc1[nH]n(C(=O)c2ccc(Cl)cc2)c(=O)c1/C=C1\C(O)=CC(=O)c2ccccc21`: the TGI in [1], in assay [2], in assay [3], in assay [4], in assay [5] and in assay [6] was greater than 100 µM each time. Further, the TGI in assay [7] and in assay [8] was greater than 100 µM in each case.

Take `Nc1nc(N)c(-c2ccccc2)c(C(=O)Nc2nccs2)n1`: the TGI in [1], in [2], in assay [3], in assay [9], in assay [5] and in assay [6] was greater than 100 µM each time. Besides, the TGI in assay [7] and in [8] was greater than 100 µM throughout.

As to `CCOC(=O)NC/C=C/CO`, the TGI in assay [1], in [2], in assay [3], in [9], in [4] and in assay [6] was greater than 100 µM in each case. The TGI in assay [7] and in [8] was greater than 100 µM each time.

Turning to `CCOC(=O)/C(=C/c1ccc[nH]1)P(=O)(OCC)OCC`, the TGI in [1], in assay [2], in [3], in assay [9], in assay [4] and in assay [5] was greater than 100 µM throughout. For the same compound, the TGI in [6], in assay [7] and in assay [8] was greater than 100 µM each time.

For `CCOC(=O)c1c(/C=N\Nc2ccccc2)nc2ccccc2c1-c1ccccc1`, the TGI in assay [1] was greater than 100 µM; in assay [2] it was 50.1 µM; in assay [3], greater than 100 µM; in [9] it was greater than 100 µM; in assay [4] it was 67.1 µM; in assay [5], greater than 100 µM. For the same compound, the TGI in [6] was greater than 100 µM; in [7], greater than 100 µM; in assay [8], 98.7 µM.

Turning to `Cc1c(C(=O)C/C(=N/NC(=O)CC#N)C(N)=O)[n+](=O)c2ccccc2n1[O-]`, the TGI in [1] was greater than 100 µM; in assay [2], 69.4 µM; in assay [3], greater than 100 µM; in [9] it was greater than 100 µM; in assay [4], 51.6 µM; in assay [5] it was greater than 100 µM. Besides, the TGI in assay [6], in assay [7] and in assay [8] was greater than 100 µM in each case.

Regarding `Nc1ccc2ncc(Nc3ccc(Cl)c(Cl)c3)nc2c1`, the TGI in [1] is greater than 100 µM; in [2] it was 38.3 µM; in [3], greater than 100 µM; in assay [9] it was 62.6 µM; in [4] it was 48.8 µM; in [5], greater than 100 µM. In addition, the TGI in [6] is 55.2 µM; in assay [7], greater than 100 µM; in [8] it was greater than 100 µM.

For the compound `O=C(/C=C/c1ccc(OCC(=O)N2CCN(c3ccccc3)CC2)cc1)c1ccccc1`, the TGI is greater than 57.9 µM in [1]; 30.8 µM in [2]; greater than 43 µM in assay [3]; greater than 60.4 µM in assay [9]; greater than 56.8 µM in [4]; greater than 90 µM in assay [5]. Moreover, the TGI was 51.6 µM in assay [6], greater than 100 µM in assay [7] and greater than 62 µM in [8].
